From ChEMBL document CHEMBL3045180, “Synthesis of novel 4,6-diaryl-2-aminopyrimidines as potential antiplasmodial agents” (Med Chem Res, 2013) come the findings set out here.

The IC50 is the concentration at which inhibition is half-maximal. A lower IC50 goes with greater potency.

Converted amounts (≈) assume the structure as drawn. Where only a bound is given, the exact number is not on record here.

Series [1] can be described thus: Haemolytic activity against Homo sapiens (human) RBC at >25 ug/ml up to 24 hr. The series is classed as ADME, cell-based. The following applies: erythrocyte.
For a further series, the system named is Plasmodium falciparum. Nature of the series: Antiplasmodial activity against chloroquine-sensitive Plasmodium falciparum MRC 20 infected in human red blood cells measured up to 24 hr. Type of series: functional, organism-based. Conditions: MRC 20, 24 h.
Series [2] in a line: Haemolytic activity against Homo sapiens (human) RBC at >50 ug/ml up to 24 hr. Type of series: ADME, cell-based. Conditions: erythrocyte.
Series [3] in a line: Haemolytic activity against Homo sapiens (human) RBC at >12.5 ug/ml up to 24 hr. Type of series: ADME, cell-based. The following applies: erythrocyte.

As for `Nc1nc(-c2ccc(OCc3ccccc3)cc2O)cc(-c2ccccc2Cl)n1`, in series [1], the Activity result is given as “Toxic”. The half-inhibitory concentration (IC50) in the series with Plasmodium falciparum was 18.9 µg/mL (≈ 46.7 µM).

`COc1ccc(-c2cc(-c3ccc(OCc4ccccc4)cc3O)nc(N)n2)cc1`: in series [1], the Activity result is “Toxic”. Besides, 5.01 µg/mL (≈ 12.5 µM) corresponded to half-maximal inhibition in the series with Plasmodium falciparum (IC50).

Turning to `COc1ccc(O)c(-c2cc(-c3ccccc3Cl)nc(N)n2)c1`, the Activity entry in series [2] is “Toxic”. The half-inhibitory concentration (IC50) in the series with Plasmodium falciparum turned out to be 29.3 µg/mL (≈ 89.5 µM).

In the case of `Cc1cccc(-c2cc(-c3ccc(OCc4ccccc4)cc3O)nc(N)n2)c1`, the Activity entry in series [1] was “Toxic”. Also, the IC50 in the series with Plasmodium falciparum was found to be 35.6 µg/mL (≈ 92.7 µM).

Turning to `Nc1nc(-c2ccc(F)cc2)cc(-c2ccc(OCc3ccccc3)cc2O)n1`, the Activity result in series [2] was “Toxic”. The compound also gave an IC50 in the series on Plasmodium falciparum of 16.7 µg/mL (≈ 43 µM).

`COc1ccc(-c2cc(-c3ccc(OC)cc3O)nc(N)n2)cc1`: the Activity entry in series [3] is on record as “Toxic”. For the same compound, in the series with Plasmodium falciparum, the IC50 turned out to be 1.78 µg/mL (≈ 5.5 µM).

In the case of `COc1ccc(-c2cc(-c3ccc(F)cc3)nc(N)n2)c(O)c1`, the Activity entry in series [2] is recorded as “Toxic”. In addition, in the series on Plasmodium falciparum, half-maximal inhibition (IC50) required 15.2 µg/mL (≈ 49 µM).

In the case of `COc1ccc(-c2cc(-c3ccc(C)cc3)nc(N)n2)c(O)c1`, in series [1], the Activity result is recorded as “Toxic”. In the series on Plasmodium falciparum, this compound came in with an IC50 of 8.71 µg/mL (≈ 28.3 µM).

Turning to `Cc1ccc(-c2cc(-c3ccc(OCc4ccccc4)cc3O)nc(N)n2)cc1`, in series [1], the Activity result was “Toxic”. In the series with Plasmodium falciparum, this compound registered a half-maximal inhibitory concentration (IC50) of 14.9 µg/mL (≈ 38.8 µM).

As for `COc1ccc(-c2cc(-c3ccc(Cl)cc3)nc(N)n2)c(O)c1`, the Activity result in series [1] is “Toxic”. For the same compound, the half-maximal inhibitory concentration (IC50) in the series with Plasmodium falciparum turned out to be 21.3 µg/mL (≈ 65.1 µM).

With `CCN(CC)CCCC(C)Nc1ccnc2cc(Cl)ccc12` (stereo not drawn) [CHLOROQUINE], the Activity result in series [1] is “Toxic”.

As for `COc1ccc(O)c(-c2cc(-c3ccc(F)cc3)nc(N)n2)c1`, in series [2], the Activity result is given as “Toxic”. For the same compound, in the series with Plasmodium falciparum, inhibition was half-maximal at 25.5 µg/mL (≈ 82 µM) (IC50).

For the compound `COc1ccc(O)c(-c2cc(-c3cccc(Cl)c3)nc(N)n2)c1`, the Activity entry in series [1] is “Toxic”. Further, the midpoint of inhibition in the series with Plasmodium falciparum, the IC50, lay at 9.53 µg/mL (≈ 29.1 µM).

For the compound `COc1cccc(-c2cc(-c3ccc(OCc4ccccc4)cc3O)nc(N)n2)c1`, the Activity result in series [1] is recorded as “Toxic”. In addition, inhibition with Plasmodium falciparum was half-maximal at 7.61 µg/mL (≈ 19.1 µM) (IC50).

Take `COc1ccc(-c2cc(-c3ccc(OCc4ccccc4)cc3O)nc(N)n2)cc1OC`: the Activity result in series [3] is on record as “Toxic”. Further, in the series with Plasmodium falciparum, the half-maximal inhibitory concentration (IC50) stood at 1.61 µg/mL (≈ 3.75 µM).

Turning to `COc1cccc(-c2cc(-c3cc(OC)ccc3O)nc(N)n2)c1`, the Activity result in series [2] is listed as “Toxic”. Besides, the 50% inhibitory concentration (IC50) in the series with Plasmodium falciparum is greater than 25 µg/mL.

For `C=C[C@H]1C[N@@]2CC[C@H]1C[C@H]2[C@H](O)c1ccnc2ccc(OC)cc12` [QUININE], the Activity result in series [1] was “Toxic”. In the series with Plasmodium falciparum, the IC50 worked out at 29 µg/mL (≈ 89.4 µM).
